# Results as given in ChEMBL document CHEMBL1201862, “PubChem BioAssay data set” (2004).
# Calls of active or inactive are those of the source.
# Legend:
# [1] = target: Heat shock protein HSP 90-alpha (Homo sapiens, UniProt P07900); type: functional, organism-based
# [2] = HeLa cell cytotoxicity, dose response, cytotoxicity control, CellTiter-Glo luminescence, dry powder, set 2 (AID 720593); type: functional, cell-based
# [3] = HEK293T cell cytotoxicity, dose response, cytotoxicity control, CellTiter-Glo luminescence, dry powder, set 2 (AID 720595); type: functional, cell-based; settings: HEK293
# [4] = NIH-3T3 fibroblast cytotoxicity, dose response, cytotoxicity control, cell-based, fluorescence, Alamar Blue, secondary assay (AID 2327); type: functional;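 further: NIH-3T3 mouse fibroblasts cultured with fluconazole at 8 µg/mL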
# Albumin = Albumin (Bos taurus, UniProt P02769); experiment: Counterscreen for inhibitors of T-cell receptor (TCR)-CD3 interaction: Fluorescence-based biochemical high throughput dose response assay to identify inhibitors of T-cell receptor (TCR)-CD3 interaction using a TAMRA-labeled BSA probe.; type: functional
# [5] = C. albicans growth with fluconazole, confirmation, fluorescence, retest (AID 2467); type: functional, cell-based
# [6] = Luminescence Cell-Based Dose Confirmation HTS to Identify Activators of 5'UTR Stem-Loop Driven Alpha-Synuclein mRNA Translation in H4 Neuroglioblastoma Cells. [Related pubchem assays: 1829 (Project Summary), 1814 (Primary HTS)]; type: functional
# [7] = Luminescence Cell-Based Dose Response HTS to Identify Activators of Luciferase Translation or Activity in H4 […] Cells. [Related pubchem assays: 1829 (Project Summary), 1814 (Primary HTS)]; type: functional
# [8] = HEK293 cell cytotoxicity, dose response, cytotoxicity control, dry powder samples (AID 720567); type: functional, cell-based
# H4 = experiment: Luminescence Cell-Based Dose Response HTS to Identify Activators of 5'UTR Stem-Loop Driven Prion Protein mRNA Translation in H4 Neuroglioblastoma Cells. [Related pubchem assays: 1829 (Project Summary), 1814 (Primary HTS)]; type: functional; settings: Homo sapiens
# A549 = experiment: A549 cell toxicity, dose response, cytotoxicity control, plate reader, cherry-pick samples (AID 687028); type: functional, cell-based; settings: Homo sapiens
# Beta-lactamase [9] = target: T1, Beta-lactamase (Pseudomonas aeruginosa, UniProt Q79MP6); experiment: IMP-1 metallo-beta-lactamase inhibitors, dose response, selectivity assay for VIM-2 inhibitor project, biochemical, epi-absorbance (AID 1920)
# Beta-lactamase [10] = target: T1, Beta-lactamase; experiment: […] counterscreen for selective VIM-2 inhibitors: dose response biochemical high throughput screening assay to identify inhibitors of IMP-1 metallo-beta-lactamase.
# [11] = target: T2, Corticotropin-releasing factor receptor 2/Corticotropin-releasing factor-binding protein (Homo sapiens, UniProt P24387+Q13324); experiment: activators of CRF receptor 2 with binding protein – uHTS hits, confirmation (AID 602473); type: functional; settings: read-out: EC50_Mean
# T2 sequence (Q13324 whole entry): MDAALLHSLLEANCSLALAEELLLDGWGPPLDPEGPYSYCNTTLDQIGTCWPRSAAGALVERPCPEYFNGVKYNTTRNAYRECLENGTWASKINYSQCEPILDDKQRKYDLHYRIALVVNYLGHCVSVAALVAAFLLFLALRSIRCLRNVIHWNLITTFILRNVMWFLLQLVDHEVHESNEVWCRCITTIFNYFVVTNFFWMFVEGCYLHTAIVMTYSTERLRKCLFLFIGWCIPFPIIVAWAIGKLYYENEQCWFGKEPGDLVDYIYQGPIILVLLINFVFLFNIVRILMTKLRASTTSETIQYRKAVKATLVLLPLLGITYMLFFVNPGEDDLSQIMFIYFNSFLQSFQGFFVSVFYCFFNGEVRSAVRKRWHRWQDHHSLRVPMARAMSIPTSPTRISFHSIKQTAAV
# T2 sequence (P24387 whole entry): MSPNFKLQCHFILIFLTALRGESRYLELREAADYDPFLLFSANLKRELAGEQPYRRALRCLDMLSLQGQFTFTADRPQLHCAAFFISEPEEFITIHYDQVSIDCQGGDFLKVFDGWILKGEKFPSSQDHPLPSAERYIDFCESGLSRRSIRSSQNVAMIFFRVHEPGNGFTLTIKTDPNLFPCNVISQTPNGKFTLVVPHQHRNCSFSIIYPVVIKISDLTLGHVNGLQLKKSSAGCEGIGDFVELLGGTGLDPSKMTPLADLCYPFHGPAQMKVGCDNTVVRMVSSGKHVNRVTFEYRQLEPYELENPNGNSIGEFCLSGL
# [12] = CRF-BP/CRF-R2 complex antagonists, dose response, cell-based, uHTS hits, 384-well (AID 651639); type: functional, Homo sapiens; settings: read-out: IC50_Mean
# Beta-lactamase [13] = target: Beta-lactamase (Salmonella choleraesuis (strain SC-B67), UniProt Q5J463); experiment: Epi-absorbance-based counterscreen for selective VIM-2 inhibitors: dose response biochemical high throughput screening assay to identify inhibitors of TEM-1 serine-beta-lactamase.
# [14] = target: T2, Corticotropin-releasing factor receptor 2/Corticotropin-releasing factor-binding protein; experiment: Dose Response confirmation of uHTS hits for small molecule antagonists of the CRF-binding protein and CRF-R2 receptor complex.; type: functional; settings: read-out: IC50_Mean
# Major prion protein = Major prion protein (Homo sapiens, UniProt P04156); type: functional, cell-based
# [15] = Luminescence Cell-Based Dose Response to Identify Activators of Luciferase Translation or Activity in H4-C Neuroglioblastoma Cells. [Related pubchem assays: 1829 (Project Summary), 1814 (Primary HTS)]; type: functional
# Cysteine protease ATG4B = target: T3, Cysteine protease ATG4B (Homo sapiens, UniProt Q9Y4P1); type: functional;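 further: Fluorescence-based dose-response confirmation assay measuring inhibition of ATG4B activity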
# T3 sequence (Q9Y4P1 whole entry): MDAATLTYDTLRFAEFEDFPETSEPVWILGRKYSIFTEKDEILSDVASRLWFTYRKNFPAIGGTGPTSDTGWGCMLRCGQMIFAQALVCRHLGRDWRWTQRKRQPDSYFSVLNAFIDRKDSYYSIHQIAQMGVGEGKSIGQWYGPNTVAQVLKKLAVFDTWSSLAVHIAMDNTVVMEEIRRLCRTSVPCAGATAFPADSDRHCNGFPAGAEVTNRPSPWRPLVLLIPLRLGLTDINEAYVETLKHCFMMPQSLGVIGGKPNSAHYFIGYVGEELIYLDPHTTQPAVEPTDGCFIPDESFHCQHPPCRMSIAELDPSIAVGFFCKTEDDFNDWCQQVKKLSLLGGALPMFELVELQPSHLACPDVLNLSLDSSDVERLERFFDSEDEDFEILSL
# [16] = Luminescence Cell-Based Dose Confirmation to Identify Activators of 5'UTR Stem-Loop Driven Alpha-Synuclein mRNA Translation in H4 Neuroglioblastoma Cells. [Related pubchem assays: 1829 (Project Summary), 1814 (Primary HTS)]; type: functional
# [17] = Luminescence Cell-Based Dose Response to Identify Activators of 5'UTR Stem-Loop Driven Prion Protein mRNA Translation in H4-C Neuroglioblastoma Cells. [Related pubchem assays: 1829 (Project Summary), 1814 (Primary HTS)]; type: functional
# Phospholipase A2 = Phospholipase A2 (Homo sapiens, UniProt P04054); type: functional;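 further: confirmatory dose-response counterscreen on phospholipase A2, testing hits that came from an ultra-high-throughput screen for ATG4B inhibitors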
# Protein skinhead-1 = target: T4, Protein skinhead-1 (Caenorhabditis elegans, UniProt P34707); type: functional
# T4 sequence (P34707 whole entry): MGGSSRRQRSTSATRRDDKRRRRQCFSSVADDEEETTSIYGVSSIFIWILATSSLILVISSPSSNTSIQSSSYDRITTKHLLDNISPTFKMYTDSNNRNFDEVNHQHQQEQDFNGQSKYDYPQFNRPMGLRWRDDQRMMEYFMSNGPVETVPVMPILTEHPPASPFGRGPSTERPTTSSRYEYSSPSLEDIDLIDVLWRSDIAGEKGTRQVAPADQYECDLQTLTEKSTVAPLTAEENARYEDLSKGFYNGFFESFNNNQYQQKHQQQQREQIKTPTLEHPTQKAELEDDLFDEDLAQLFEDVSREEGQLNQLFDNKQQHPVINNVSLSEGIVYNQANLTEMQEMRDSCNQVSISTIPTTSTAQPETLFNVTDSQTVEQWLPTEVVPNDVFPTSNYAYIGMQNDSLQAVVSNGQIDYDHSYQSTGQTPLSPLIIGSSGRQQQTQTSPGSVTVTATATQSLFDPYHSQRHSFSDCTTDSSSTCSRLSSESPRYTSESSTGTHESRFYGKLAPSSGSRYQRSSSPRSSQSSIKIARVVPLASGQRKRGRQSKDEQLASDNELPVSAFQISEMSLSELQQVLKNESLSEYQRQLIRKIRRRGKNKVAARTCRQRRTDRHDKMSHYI
# [18] = target: Fructose-bisphosphate aldolase (Mycobacterium tuberculosis, UniProt P9WQA3); experiment: Fluorescence-based biochemical high throughput dose response assay for inhibitors of the fructose-bisphosphate aldolase (FBA) of M. tuberculosis.; type: functional
smiles,measurement,setting,value
O=C(CSc1ccc(-c2ccccn2)nn1)Nc1ccccc1,AC50,[1],35.3 µM (active)
same,AC50,[2],> 52 µM (inactive)
same,AC50,[3],25.8 µM (active)
COc1ccc(NC(=O)NNC(=O)c2cc3ccccc3cc2O)cc1,EC50,[4],> 160 µM (inactive)
same,IC50,Albumin,> 94.1 µM (inactive)
same,EC50,[5],> 38 µM (not active)
COC(=O)c1cn(C(=O)c2ccc(OC)cc2)c2ccccc12,EC50,[6],> 120 µM (not active)
same,EC50,[7],9.72 µM (active)
same,AC50,[8],> 30 µM (inactive)
same,EC50,H4,> 120 µM (not active)
C[C@]1(C(=O)NCCc2c[nH]c3ccccc23)C=C[C@@H](Cc2ccccc2)N1C(=O)c1ccccc1,AC50,A549,20.6 µM (active)
Oc1nc(SCc2nnc(S)n2-c2ccccc2)nc2sc3c(c12)CCC3,IC50,Beta-lactamase [9],> 59.6 µM (inactive)
same,IC50,Beta-lactamase [10],> 59.6 µM (inactive)
same,EC50,[11],> 53 µM (inactive)
same,IC50,[12],6.63 µM (active)
same,IC50,Beta-lactamase [13],> 59.6 µM (inactive)
same,IC50,[14],13.5 µM (active)
Cc1cccc2c(=O)c(-c3ccc4c(c3)OCO4)c(NC(=O)c3ccco3)oc12,IC50,cells,> 138 µM (inactive)
same,IC50,Major prion protein,9.57 µM (active)
COc1ccc2c(c1OC)C(=O)OC2Nc1nc(-c2ccc(-c3ccccc3)cc2)cs1 (configuration not stated),EC50,[15],0.284 µM (active)
same,EC50,[7],< 0.1 µM (active)
same,IC50,Cysteine protease ATG4B,8.28 µM (active)
same,EC50,[16],0.396 µM (active)
same,EC50,[17],0.254 µM (active)
same,IC50,Phospholipase A2,17.1 µM (active)
same,IC50,Protein skinhead-1,18.7 µM (active)
same,IC50,[18],6.08 µM (active)
